Results reported in publication PMC7899551, “Phase 1 study of Z-endoxifen in patients with advanced gynecologic, desmoid, and hormone receptor-positive solid tumors” (Oncotarget, 2021).
“Also recorded” adds a separate entry of the source.

How the values were obtained:
ERα = target: T1, ERα (Homo sapiens, UniProt P03372); assay: 18F-FES PET/CT imaging (blocking estrogen receptor binding); assay type: in vivo; settings: after 1–5 days of oral treatment
T1 construct: from tissue; host or cells: patients' tumors in vivo, e.g. a pre-sacral soft tissue lesion of serous ovarian cancer
T1 sequence (P03372 1-595): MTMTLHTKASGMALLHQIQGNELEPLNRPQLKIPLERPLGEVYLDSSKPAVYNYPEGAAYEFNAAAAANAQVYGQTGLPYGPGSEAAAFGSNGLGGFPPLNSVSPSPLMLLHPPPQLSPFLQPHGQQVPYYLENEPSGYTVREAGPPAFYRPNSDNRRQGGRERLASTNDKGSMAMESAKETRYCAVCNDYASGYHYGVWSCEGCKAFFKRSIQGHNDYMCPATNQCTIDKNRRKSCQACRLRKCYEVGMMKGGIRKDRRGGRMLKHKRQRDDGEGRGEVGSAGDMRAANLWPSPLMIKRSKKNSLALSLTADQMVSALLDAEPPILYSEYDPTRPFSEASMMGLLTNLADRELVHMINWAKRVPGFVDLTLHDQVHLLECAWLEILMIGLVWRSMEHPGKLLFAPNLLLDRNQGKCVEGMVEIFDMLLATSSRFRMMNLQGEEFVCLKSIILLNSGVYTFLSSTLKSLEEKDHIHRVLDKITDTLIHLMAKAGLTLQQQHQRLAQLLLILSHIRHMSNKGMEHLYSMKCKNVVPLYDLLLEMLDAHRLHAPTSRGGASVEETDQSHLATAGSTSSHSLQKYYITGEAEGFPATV
Description: The pharmacodynamic effect of Z-endoxifen, blocking estrogen receptor binding, was assessed by ^18F-FES PET/CT imaging. […] Twenty patients in this trial agreed to be screened by ^18F-FES PET/CT imaging to assess ER status. Ten patients who were positive prior to treatment were re-imaged from 1 to 5 days after treatment initiation. We present here images taken after 3 days of treatment from a patient with serous ovarian cancer whose imaging has not previously been reported (patient 40, DL8, Figure 2). […] This patient developed a bowel obstruction during cycle 1 attributed to their disease and chose to come off study. Other images from patients in this trial have been previously reported.
The uptake of ^18F-FES was measured using PET/CT imaging in patients enrolled in the present trial before and after 1–5 days of treatment with oral Z-endoxifen HCl as previously described. Five additional patients were scanned following the publication of the imaging approach. The images presented here are from one of these 5 patients.

[1] = Urinary excretion of Z-endoxifen over a 24-hour collection; assay type: in vivo, human
Description: A 3-mL blood sample was collected in a K2 EDTA tube on day 1 of cycle 1 before drug administration and at the following times post-first dose: 0.5, 1, 2, 3, 4, 6, 8, and 24 hours. Samples were collected at the same time points on day 28 of cycle 1 for DL1-6 until a protocol amendment eliminated the requirement for these samples at the higher dose levels. Samples were wrapped in aluminum foil after collection to protect from light exposure. A 10-mL aliquot of urine was collected before agent administration on cycle 1 day 1, for 24 hours after dosing on day 1, and before drug administration on cycle 2 day 1; samples were refrigerated prior to analysis.
Plasma and urine concentrations of Z- and E-endoxifen were measured using a validated, post-column fluorescence derivatization HPLC assay. Non-compartmental pharmacokinetic parameters were calculated using WinNonlin version 7.0 (Pharsight Corp., Mountainview, CA, USA). A 2 μM Cmax target was established for day 28 plasma concentration. The amount of Z-endoxifen excreted in urine was measured over a 24-hour collection period.

[2] = tested on: gynecologic tumors, desmoid tumors, hormone receptor-positive solid tumors; assay: Clinical outcome (RECIST 1.1 response, cycles on study); assay type: in vivo, human; settings: for prolonged disease stabilization: desmoid
Description: This study enrolled patients ≥ 18 years of age with gynecological tumors, desmoid tumors, histologically-documented HR+ (ER+/PR+, ER+/PR-, or ER-/PR+) breast cancer, or other solid tumors that were ER+ or PR+ by immunohistochemistry (any positive expression). […] All other patients must have progressed on at least one line of standard-of-care therapy.
Eye examinations were performed at baseline, every six months while on study, and if clinically indicated. CT scans were performed at baseline, and tumor response was assessed every 2 cycles (8 weeks; every 16 weeks for patients on study for more than 12 months) based on the Response Evaluation Criteria in Solid Tumors (RECIST) version 1.1 [39]. A confirmatory scan was performed after at least 4 weeks to confirm objective response.

[3] = patient 7, fallopian tube cancer

Q: Which “18F-FES tracer uptake on PET/CT” value (ERα) does the source give for `CC/C(=C(\c1ccc(O)cc1)c1ccc(OCCNC)cc1)c1ccccc1` [Z-endoxifen] here?
A: FES tracer uptake could be reduced

Q: And the “amount excreted in the urine” value [1]?
A: < 0.26 % of dose

Q: What about the “mean number of cycles completed” value ([2]; 3 ER+/PR- breast cancer patients) of the same compound?
A: 3.0 ± 2.6 cycles

Q: What about the “mean number of cycles completed” value ([2]; 6 ER+/PR+ breast cancer patients) of the same compound?
A: 6.7 ± 4.4 cycles

Q: And the “disease stabilizations of ≥ 6 cycles” value ([2]; 20 evaluable patients with gynecologic tumors (patients 20, 30, 31))?
A: 3 patients

Q: What about the partial responses ([2]; 34 evaluable patients) of the same compound?
A: Three patients had partial responses; also recorded: Three patients in this study experienced partial responses

Q: What about the “patients with stable disease ≥ 6 cycles” value ([2]; 34 evaluable patients) of the same compound?
A: 8 patients

Q: What about the “treatment cycles on study, average” value ([2]; 34 evaluable patients) of the same compound?
A: 7.2 cycles

Q: What about the “treatment cycles on study, median” value ([2]; 34 evaluable patients) of the same compound?
A: 4 cycles

Q: And the “treatment cycles on study, range” value ([2]; 34 evaluable patients)?
A: 1–62 cycles

Q: What about the “Clinical Benefit (partial response or stable disease for at least 6 cycles)” value (“Clinical Benefit” for short) ([2]; Breast cancer (n = 9)) of the same compound?
A: 4 patients

Q: What about the “CBR (partial response or stable disease ≥ 6 cycles)” value ([2]; DL1 to DL5, 20 to 140 mg daily, 3/16 patients) of the same compound?
A: 18.8%

Q: And the “CBR (partial response or stable disease ≥ 6 cycles)” value ([2]; DL6 to DL8, 200 to 360 mg daily, 8/18 patients)?
A: 44.4%

Q: What about the “Clinical Benefit” value ([2]; Desmoid (n = 4)) of the same compound?
A: 3 patients

Q: What about the “mean cycles completed on study” value ([2]; ER+ breast cancer) of the same compound?
A: 5.1 ± 4.4 cycles

Q: And the “mean cycles on study” value ([2]; ER+ ovarian cancer, 4 patients)?
A: 4.0 ± 4.0 cycles

Q: What about the “Clinical Benefit” value ([2]; Fallopian tube cancer (n = 2)) of the same compound?
A: 1 patients

Q: And the “Clinical Benefit” value ([2]; Granulosa cell ovarian (n = 2))?
A: 0 patients

Q: And the “Clinical Benefit” value ([2]; Ovarian cancer (n = 9))?
A: 2 patients

Q: And the “Clinical Benefit” value ([2]; Total of Supplementary Table 1 (endometrial patient 31 not included))?
A: 10 patients

Q: And the “overall CBR (partial response or stable disease ≥ 6 cycles)” value ([2]; all dose levels)?
A: 32.5%

Q: And the CBR ([2]; hormone receptor-positive breast cancer, 4/9 patients)?
A: 44%

Q: What about the clinical response [2, 3] of the same compound?
A: partial response

Q: And the cycles on study [2, 3]?
A: 14 cycles

Q: What about the clinical response ([2]; patient 23, desmoid fibromatosis, prior progression on tamoxifen) of the same compound?
A: partial response

Q: And the prolonged disease stabilization ([2]; patient 28 (DL7))?
A: 11 cycles

Q: And the stable disease duration ([2]; patient 31, endometrial cancer)?
A: 7 cycles

Q: What about the clinical response ([2]; patient 33 (DL8), breast cancer) of the same compound?
A: partial response

Q: What about the prolonged disease stabilization ([2]; patient 35 (DL8), prior progression on tamoxifen) of the same compound?
A: 24 cycles

Q: And the stable disease duration ([2]; patients 3, 10, and 21 (DL1, DL3, DL6), breast cancer)?
A: ≥ 6 cycles

Q: What about the CBR ([2]; patients with desmoid tumors, 3/4 patients) of the same compound?
A: 75%

Q: What about the CBR ([2]; patients with gynecologic malignancies, 4/20 patients) of the same compound?
A: 20%

Q: What about the “mean cycles on study” value ([2]; undetermined ER status ovarian cancer, n = 5) of the same compound?
A: 2.0 ± 1.2 cycles
